In PMC8151276, “An Integrated Approach toward NanoBRET Tracers for Analysis of GPCR Ligand Engagement” (Molecules, 2021):

Assays:
FZD10 = target: T1, FZD10 (Homo sapiens, UniProt Q9ULW2); assay: NanoBRET screen HiBiT-FZD10 in HEK293; type: binding; conditions: FZD10
T1 construct: purchased Promega (in-house HiBiT-GPCR construct library, NanoBRET)
T1 sequence (Q9ULW2 21-581): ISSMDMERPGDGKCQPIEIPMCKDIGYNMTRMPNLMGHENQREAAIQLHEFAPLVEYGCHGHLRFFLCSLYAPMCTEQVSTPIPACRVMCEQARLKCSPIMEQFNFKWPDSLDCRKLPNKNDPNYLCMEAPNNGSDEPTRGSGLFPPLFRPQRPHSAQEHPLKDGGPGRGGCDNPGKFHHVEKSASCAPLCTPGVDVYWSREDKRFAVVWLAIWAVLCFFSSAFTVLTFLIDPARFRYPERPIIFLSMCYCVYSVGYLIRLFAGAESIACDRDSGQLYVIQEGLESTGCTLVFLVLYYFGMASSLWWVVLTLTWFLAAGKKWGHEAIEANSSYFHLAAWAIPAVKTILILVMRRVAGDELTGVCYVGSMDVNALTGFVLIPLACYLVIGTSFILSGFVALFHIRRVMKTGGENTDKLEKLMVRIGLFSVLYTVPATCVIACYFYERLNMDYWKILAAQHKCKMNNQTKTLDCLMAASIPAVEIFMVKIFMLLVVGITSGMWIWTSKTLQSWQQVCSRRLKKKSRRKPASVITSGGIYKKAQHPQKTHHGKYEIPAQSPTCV
Procedure: (§1) Each tracer candidate was screened across the entire library of HiBiT-GPCR constructs using NanoBRET as the detection modality. As depicted in Figure 4A, the specificity of interactions was evaluated through decrease in BRET due to competitive displacement of a bound tracer by excess parental compound. Each tracer was analyzed for binding to each HiBiT-GPCR fusion in the absence and in the presence of competing parental compound. Briefly, HEK293 cells were transfected with HiBiT-GPCR constructs diluted into promoterless DNA to reduce expression and maximize translocation to the cell surface. Each tracer candidate was then screened at concentrations of 1 μM and 0.1 μM across cells expressing these fusions. Cells were treated for 1.5 h with tracer either alone or in the presence of 20 μM competing parental compound (i.e., control). BRET was measured upon addition of purified LgBiT and subsequent complementation with HiBiT genetically fused to a GPCR. The specificity of interactions was assessed through a decrease in BRET signal due to competitive displacement of the bound tracer. To further gauge the robustness of these interactions, the fold response over the control (i.e., BRETtracer/BRETcontrol) was calculated. We chose a 1.5-fold response, which translates to ≥7-fold signal over noise as the minimal threshold required to score an interaction as positive.
(§2) HiBiT-GPCR DNA constructs were diluted in 10 mM Tris pH 8 to a final concentration of 0.01 μg/μL, arrayed in 96-well plates and stored at −20 °C. For transfection, HEK293 cells were suspended in Opti-MEM (without phenol red) supplemented with 2% fetal bovine serum (Seradigm) and 100 units/mL penicillin–streptomycin (Gibco) at a final concentration of 220,000 cells/mL and dispensed into white 96-well plates at 90 μL/well. Subsequent transfections and screens were carried using an Agilent Bravo Automated Liquid Handling Platform. First, the 96-well HiBiT DNA arrays were diluted 25-fold in Opti-MEM (without serum or phenol red) to a final concentration of 0.0004 μg/μL and 20 μL of the diluted DNAs were transferred into new 96-well plates. Next, promoterless carrier DNA (1 μg/μL) was diluted 25-fold (0.04 μg/μL) and then dispensed into the diluted arrays at 20 μL/well. Following brief mixing, Viafect transfection reagent (Promega) diluted 16-fold into Opti-MEM was dispensed into the plates at 40 μL/well. After mixing by pipetting, plates were incubated for 10 min on the pipetting station deck. The DNA-transfection reagent complexes were then added to plates containing cells. To facilitate the screen, 10 μL of DNA-transfection reagent complexes were added in duplicates to the top 4 and bottom 4 rows, resulting in two identical 48-well arrays per plate. Plates with transfected cells were incubated for 18–20 h at 37 °C/5% CO2. A screen of each tracer across the entire library using two different concentrations requires duplicate plates of transfected cells. Depending on the number of tracers being screened, transfections can be scaled up using the same ratios. The next day, for each tracer, four 20× screening solutions in tracer dilution buffer (Promega) were prepared: two duplicates at final concentration of 20 μM and two duplicates at a final concentration of 2 μM. […] The four resulting solutions were diluted 4-fold in Opti-MEM without serum or phenol red to generate 5× solutions (5 µM and 0.5 µM tracer +/− 100 μM competing compound). To screen the library, a BioTek MultiFlo FX liquid dispenser was used to dispense 22.5 µL of tracer solution to the top 4 rows and 22.5 µL tracer + competing compound solution to the 4 bottom rows. Plates were briefly mixed on an orbital shaker and incubated for 1.5 h at room temperature. […] Plates were briefly mixed on an orbital shaker and incubated for 15 min to allow complementation.

NPFFR1 = target: T2, NPFFR1 (Homo sapiens, UniProt Q9GZQ6); assay: NanoBRET screen HiBiT-NPFFR1 in HEK293; type: binding; conditions: NPFFR1
T2 construct: purchased Promega (in-house HiBiT-GPCR construct library, NanoBRET)
T2 sequence (Q9GZQ6 whole entry): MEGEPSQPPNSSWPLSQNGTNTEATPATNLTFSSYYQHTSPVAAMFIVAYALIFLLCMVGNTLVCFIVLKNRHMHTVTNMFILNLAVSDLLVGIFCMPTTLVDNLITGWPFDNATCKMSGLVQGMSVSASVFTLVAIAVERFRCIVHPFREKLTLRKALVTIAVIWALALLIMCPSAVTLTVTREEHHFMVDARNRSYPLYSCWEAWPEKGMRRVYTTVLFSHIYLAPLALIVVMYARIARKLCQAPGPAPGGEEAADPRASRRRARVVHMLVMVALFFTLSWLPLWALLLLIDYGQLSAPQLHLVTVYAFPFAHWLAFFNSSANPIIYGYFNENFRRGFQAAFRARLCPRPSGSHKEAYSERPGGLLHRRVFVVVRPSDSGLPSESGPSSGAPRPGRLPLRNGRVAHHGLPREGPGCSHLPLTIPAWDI
Procedure: as §1, §2

Row | Structure (SMILES) | NanoBRET Fold Response (FZD10; tracer 0.1μM) | NanoBRET Fold Response (FZD10; tracer 1μM) | NanoBRET Fold Response (NPFFR1; tracer 0.1μM) | NanoBRET Fold Response (NPFFR1; tracer 1μM) | NanoBRET Fold Response (FZD10; 0.1μM) | NanoBRET Fold Response (FZD10; 1μM) | NanoBRET Fold Response (NPFFR1; 0.1μM) | NanoBRET Fold Response (NPFFR1; 1μM)
1 | O=C(CCOCCOCCOCCOCCNC(=O)CCc1ccc2n1[B-](F)(F)[N+]1=C(c3ccc[nH]3)C=CC1=C2)NCCCN1CCN(C2=Nc3ccccc3Oc3ccc(Cl)cc32)CC1 [Loxapine-a-2-NB590] | 0.98 | 0.99 | 0.98 | 1.00 |  |  |  | 
2 | CCCn1c(=O)c2[nH]c(-c3ccc(OCC(=O)NCCNC(=O)CCOCCNC(=O)c4ccc(CNC(=O)CCc5ccc6n5[B-](F)(F)[N+]5=C(c7ccc[nH]7)C=CC5=C6)cc4)cc3)nc2n(CCC)c1=O [XAC-3-NB590] | 1.05 | 0.99 | 0.99 | 1.01 |  |  |  | 
3 | CCOC(=O)c1cc(C#N)c(N2CCC(C(=O)NS(=O)(=O)Cc3ccccc3/C=C/C(=O)NCCNC(=O)CCc3ccc4n3[B-](F)(F)[N+]3=C(c5ccc[nH]5)C=CC3=C4)CC2)nc1C [AZD1283-1-NB590] |  |  |  |  | 1.01 | 1.02 | 1.02 | 0.99
